Laboratory results as given in ChEMBL document CHEMBL4507324 (2021).

What was measured:
Conditions in all cases: Compound concentration 100.0 nM
[1] = target: Dual specificity protein kinase TTK (Homo sapiens) (UniProt P33981)
[2] = target: Tyrosine-protein kinase Blk (Homo sapiens) (UniProt P51451)
[3] = system: Phosphatidylinositol 4,5-bisphosphate 3-kinase catalytic subunit alpha isoform (Homo sapiens), P42336 [Q546K]
[4] = target: Mitogen-activated protein kinase kinase kinase 1 (Homo sapiens) (UniProt Q13233)
[5] = target: Cyclin-dependent kinase 8 (Homo sapiens) (UniProt P49336)
[6] = target: Serine/threonine-protein kinase pim-2 (Homo sapiens) (UniProt Q9P1W9)
[7] = target: Inhibitor of nuclear factor kappa-B kinase subunit epsilon (Homo sapiens) (UniProt Q14164)
[8] = target: Tyrosine-protein kinase HCK (Homo sapiens) (UniProt P08631)
[9] = system: Phosphatidylinositol 4,5-bisphosphate 3-kinase catalytic subunit alpha isoform (Homo sapiens), P42336 [H1047L]
[10] = target: Phosphorylase b kinase regulatory subunit alpha, liver isoform (Homo sapiens) (UniProt P46019)
[11] = target: Mitogen-activated protein kinase kinase kinase 19 (Homo sapiens) (UniProt Q56UN5)
[12] = system: Tyrosine-protein kinase ABL1 (Homo sapiens), P00519 [F317I]
[13] = target: Serine/threonine-protein kinase PknB (Mycobacterium tuberculosis) (UniProt P9WI81)
[14] = target: Serine/threonine-protein kinase 24 (Homo sapiens) (UniProt Q9Y6E0)
[15] = target: Proto-oncogene tyrosine-protein kinase Src (Homo sapiens) (UniProt P12931)
[16] = system: eIF-2-alpha kinase GCN2 (Homo sapiens), Q9P2K8 [S808G]
[17] = target: 5'-AMP-activated protein kinase catalytic subunit alpha-1 (Homo sapiens) (UniProt Q13131)
[18] = target: Serine/threonine-protein kinase N2 (Homo sapiens) (UniProt Q16513)
[19] = target: Serine/threonine-protein kinase PAK 1 (Homo sapiens) (UniProt Q13153)
[20] = target: Myosin-IIIb (Homo sapiens) (UniProt Q8WXR4)
[21] = target: Activated CDC42 kinase 1 (Homo sapiens) (UniProt Q07912)
[22] = target: Phosphatidylinositol 4-phosphate 3-kinase C2 domain-containing subunit beta (Homo sapiens) (UniProt O00750)
[23] = target: Tyrosine-protein kinase Fyn (Homo sapiens) (UniProt P06241)
[24] = target: 3-phosphoinositide-dependent protein kinase 1 (Homo sapiens) (UniProt O15530)
[25] = target: Transient receptor potential cation channel subfamily M member 6 (Homo sapiens) (UniProt Q9BX84)
[26] = target: 1-phosphatidylinositol 3-phosphate 5-kinase (Homo sapiens) (UniProt Q9Y2I7)
[27] = target: Serine/threonine-protein kinase LATS2 (Homo sapiens) (UniProt Q9NRM7)
[28] = target: Myosin light chain kinase, smooth muscle (Homo sapiens) (UniProt Q15746)
[29] = target: Mitogen-activated protein kinase kinase kinase 10 (Homo sapiens) (UniProt Q02779)
[30] = target: Vascular endothelial growth factor receptor 3 (Homo sapiens) (UniProt P35916)
[31] = target: STE20/SPS1-related proline-alanine-rich protein kinase (Homo sapiens) (UniProt Q9UEW8)
[32] = target: Death-associated protein kinase 3 (Homo sapiens) (UniProt O43293)
[33] = target: Serine/threonine-protein kinase PAK 5 (Homo sapiens) (UniProt Q9P286)
[34] = target: Calcium/calmodulin-dependent protein kinase type IV (Homo sapiens) (UniProt Q16566)
[35] = target: Fibroblast growth factor receptor 3 (Homo sapiens) (UniProt P22607)
[36] = target: RAC-beta serine/threonine-protein kinase (Homo sapiens) (UniProt P31751)
[37] = target: Cyclin-dependent kinase 16 (Homo sapiens) (UniProt Q00536)
[38] = system: ALK tyrosine kinase receptor (Homo sapiens), Q9UM73 [L1196M]
[39] = system: Epidermal growth factor receptor (Homo sapiens), P00533 [T790M]
[40] = target: Dual specificity mitogen-activated protein kinase kinase 1 (Homo sapiens) (UniProt Q02750)
[41] = target: Insulin receptor (Homo sapiens) (UniProt P06213)
[42] = target: SNF-related serine/threonine-protein kinase (Homo sapiens) (UniProt Q9NRH2)
[43] = target: Uncharacterized serine/threonine-protein kinase SBK3 (Homo sapiens) (UniProt P0C264)
[44] = system: Mast/stem cell growth factor receptor Kit (Homo sapiens), P10721 [V559D,T670I]

Sequence of Cyclin-dependent kinase 16 (Homo sapiens) (Q00536 whole entry): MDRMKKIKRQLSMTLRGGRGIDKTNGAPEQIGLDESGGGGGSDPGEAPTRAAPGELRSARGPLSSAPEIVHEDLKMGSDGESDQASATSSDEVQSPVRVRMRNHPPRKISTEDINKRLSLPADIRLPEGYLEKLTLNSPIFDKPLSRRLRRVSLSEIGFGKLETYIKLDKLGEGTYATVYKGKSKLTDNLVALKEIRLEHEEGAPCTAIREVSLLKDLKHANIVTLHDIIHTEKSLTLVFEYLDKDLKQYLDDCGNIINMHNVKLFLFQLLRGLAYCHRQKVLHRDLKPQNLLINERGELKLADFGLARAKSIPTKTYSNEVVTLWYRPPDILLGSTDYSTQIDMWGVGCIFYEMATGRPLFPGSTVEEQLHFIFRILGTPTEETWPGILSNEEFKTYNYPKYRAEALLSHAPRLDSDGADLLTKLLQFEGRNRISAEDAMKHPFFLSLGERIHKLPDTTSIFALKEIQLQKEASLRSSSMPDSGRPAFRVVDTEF
Sequence of Vascular endothelial growth factor receptor 3 (Homo sapiens) (P35916 whole entry): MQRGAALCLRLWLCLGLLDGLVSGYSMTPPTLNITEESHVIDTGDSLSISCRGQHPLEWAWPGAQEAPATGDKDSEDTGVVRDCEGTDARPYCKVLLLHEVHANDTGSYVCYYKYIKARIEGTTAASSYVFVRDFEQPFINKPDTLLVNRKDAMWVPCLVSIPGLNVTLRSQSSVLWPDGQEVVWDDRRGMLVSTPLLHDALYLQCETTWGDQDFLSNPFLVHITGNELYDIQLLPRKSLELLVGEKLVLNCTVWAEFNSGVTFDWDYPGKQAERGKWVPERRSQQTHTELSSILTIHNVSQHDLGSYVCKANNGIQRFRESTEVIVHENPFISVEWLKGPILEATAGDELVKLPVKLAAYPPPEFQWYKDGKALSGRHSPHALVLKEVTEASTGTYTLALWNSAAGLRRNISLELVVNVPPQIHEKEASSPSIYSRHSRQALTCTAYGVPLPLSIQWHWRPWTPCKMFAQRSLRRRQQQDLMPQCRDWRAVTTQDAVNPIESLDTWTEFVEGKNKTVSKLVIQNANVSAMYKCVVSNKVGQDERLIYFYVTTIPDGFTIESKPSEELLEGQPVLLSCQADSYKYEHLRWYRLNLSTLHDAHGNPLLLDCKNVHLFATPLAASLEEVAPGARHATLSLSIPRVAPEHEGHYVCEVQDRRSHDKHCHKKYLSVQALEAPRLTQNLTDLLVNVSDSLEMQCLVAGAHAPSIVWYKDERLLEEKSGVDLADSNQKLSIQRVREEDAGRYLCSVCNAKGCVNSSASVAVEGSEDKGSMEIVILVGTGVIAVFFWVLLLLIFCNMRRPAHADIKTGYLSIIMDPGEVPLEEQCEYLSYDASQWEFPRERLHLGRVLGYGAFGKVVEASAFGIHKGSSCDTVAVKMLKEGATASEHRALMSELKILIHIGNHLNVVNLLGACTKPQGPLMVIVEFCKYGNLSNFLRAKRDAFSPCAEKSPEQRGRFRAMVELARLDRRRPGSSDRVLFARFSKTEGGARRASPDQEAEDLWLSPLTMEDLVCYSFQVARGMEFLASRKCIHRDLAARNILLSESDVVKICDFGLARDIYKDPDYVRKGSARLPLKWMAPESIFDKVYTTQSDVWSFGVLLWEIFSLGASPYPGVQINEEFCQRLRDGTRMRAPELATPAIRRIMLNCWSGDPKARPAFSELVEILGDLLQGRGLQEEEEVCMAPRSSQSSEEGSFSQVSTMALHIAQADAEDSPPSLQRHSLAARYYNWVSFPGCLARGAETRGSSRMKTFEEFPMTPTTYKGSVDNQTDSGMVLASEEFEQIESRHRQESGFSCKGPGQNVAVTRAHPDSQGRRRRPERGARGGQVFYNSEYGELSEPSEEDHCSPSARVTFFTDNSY
Sequence of Dual specificity mitogen-activated protein kinase kinase 1 (Homo sapiens) (Q02750 whole entry): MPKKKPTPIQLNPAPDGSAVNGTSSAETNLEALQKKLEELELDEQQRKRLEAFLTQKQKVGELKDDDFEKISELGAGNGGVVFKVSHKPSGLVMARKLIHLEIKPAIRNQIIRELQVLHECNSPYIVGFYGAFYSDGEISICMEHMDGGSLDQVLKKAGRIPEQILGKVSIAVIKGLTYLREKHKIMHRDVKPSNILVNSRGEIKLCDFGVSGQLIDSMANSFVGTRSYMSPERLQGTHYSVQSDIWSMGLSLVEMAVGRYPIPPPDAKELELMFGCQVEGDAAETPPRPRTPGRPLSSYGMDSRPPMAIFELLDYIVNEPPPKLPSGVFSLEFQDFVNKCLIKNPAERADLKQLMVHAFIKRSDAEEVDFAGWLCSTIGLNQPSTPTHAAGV
Sequence of Tyrosine-protein kinase ABL1 (Homo sapiens), P00519 [F317I] (P00519 whole entry F317I): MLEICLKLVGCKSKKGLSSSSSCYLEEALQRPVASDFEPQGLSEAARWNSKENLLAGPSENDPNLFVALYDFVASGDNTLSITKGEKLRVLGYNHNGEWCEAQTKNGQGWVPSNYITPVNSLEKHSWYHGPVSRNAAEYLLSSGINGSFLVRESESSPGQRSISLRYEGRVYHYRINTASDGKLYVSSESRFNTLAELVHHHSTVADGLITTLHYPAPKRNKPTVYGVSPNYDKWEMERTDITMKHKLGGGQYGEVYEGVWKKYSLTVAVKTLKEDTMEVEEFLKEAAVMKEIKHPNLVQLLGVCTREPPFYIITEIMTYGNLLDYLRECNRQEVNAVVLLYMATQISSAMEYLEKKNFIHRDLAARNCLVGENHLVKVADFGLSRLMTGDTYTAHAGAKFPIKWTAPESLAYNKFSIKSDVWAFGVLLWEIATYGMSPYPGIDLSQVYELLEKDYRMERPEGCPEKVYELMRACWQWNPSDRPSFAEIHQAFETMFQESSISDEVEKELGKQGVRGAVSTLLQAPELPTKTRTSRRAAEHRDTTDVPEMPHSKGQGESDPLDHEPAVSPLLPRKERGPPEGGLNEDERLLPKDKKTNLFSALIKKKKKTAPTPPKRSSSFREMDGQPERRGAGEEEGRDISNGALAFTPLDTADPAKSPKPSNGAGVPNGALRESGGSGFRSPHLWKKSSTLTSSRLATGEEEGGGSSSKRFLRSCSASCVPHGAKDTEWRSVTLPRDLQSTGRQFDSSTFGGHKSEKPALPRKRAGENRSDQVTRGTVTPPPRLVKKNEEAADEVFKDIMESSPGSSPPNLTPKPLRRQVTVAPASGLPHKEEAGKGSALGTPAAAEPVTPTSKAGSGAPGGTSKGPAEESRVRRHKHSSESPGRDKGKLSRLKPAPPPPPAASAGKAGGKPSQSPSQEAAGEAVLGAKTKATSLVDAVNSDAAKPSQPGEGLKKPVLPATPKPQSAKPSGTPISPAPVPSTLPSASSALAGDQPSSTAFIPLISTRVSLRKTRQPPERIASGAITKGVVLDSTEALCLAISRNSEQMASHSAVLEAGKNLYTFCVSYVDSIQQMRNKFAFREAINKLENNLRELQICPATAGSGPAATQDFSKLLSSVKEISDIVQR
Sequence of Insulin receptor (Homo sapiens) (P06213 28-758 limits assumed): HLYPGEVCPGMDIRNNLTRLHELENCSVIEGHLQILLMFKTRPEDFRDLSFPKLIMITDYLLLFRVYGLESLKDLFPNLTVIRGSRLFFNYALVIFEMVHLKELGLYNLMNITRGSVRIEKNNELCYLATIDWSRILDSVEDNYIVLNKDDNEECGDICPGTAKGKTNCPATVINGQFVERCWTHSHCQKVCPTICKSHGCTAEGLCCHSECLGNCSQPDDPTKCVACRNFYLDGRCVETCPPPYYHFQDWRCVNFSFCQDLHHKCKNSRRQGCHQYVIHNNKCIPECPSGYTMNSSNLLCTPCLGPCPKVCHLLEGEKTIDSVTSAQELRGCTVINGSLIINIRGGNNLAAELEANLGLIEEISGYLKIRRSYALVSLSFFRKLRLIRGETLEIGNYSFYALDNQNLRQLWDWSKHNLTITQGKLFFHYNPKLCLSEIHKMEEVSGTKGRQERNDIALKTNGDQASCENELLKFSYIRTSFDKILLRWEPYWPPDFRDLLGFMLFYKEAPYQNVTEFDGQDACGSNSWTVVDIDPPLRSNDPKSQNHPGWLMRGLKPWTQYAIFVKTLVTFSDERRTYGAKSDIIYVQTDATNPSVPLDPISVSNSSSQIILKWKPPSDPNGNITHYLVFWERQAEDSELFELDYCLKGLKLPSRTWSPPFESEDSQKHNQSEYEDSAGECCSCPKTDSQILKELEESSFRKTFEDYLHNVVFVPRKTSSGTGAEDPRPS
Sequence of Insulin receptor (Homo sapiens) (P06213 763-1382 limits assumed): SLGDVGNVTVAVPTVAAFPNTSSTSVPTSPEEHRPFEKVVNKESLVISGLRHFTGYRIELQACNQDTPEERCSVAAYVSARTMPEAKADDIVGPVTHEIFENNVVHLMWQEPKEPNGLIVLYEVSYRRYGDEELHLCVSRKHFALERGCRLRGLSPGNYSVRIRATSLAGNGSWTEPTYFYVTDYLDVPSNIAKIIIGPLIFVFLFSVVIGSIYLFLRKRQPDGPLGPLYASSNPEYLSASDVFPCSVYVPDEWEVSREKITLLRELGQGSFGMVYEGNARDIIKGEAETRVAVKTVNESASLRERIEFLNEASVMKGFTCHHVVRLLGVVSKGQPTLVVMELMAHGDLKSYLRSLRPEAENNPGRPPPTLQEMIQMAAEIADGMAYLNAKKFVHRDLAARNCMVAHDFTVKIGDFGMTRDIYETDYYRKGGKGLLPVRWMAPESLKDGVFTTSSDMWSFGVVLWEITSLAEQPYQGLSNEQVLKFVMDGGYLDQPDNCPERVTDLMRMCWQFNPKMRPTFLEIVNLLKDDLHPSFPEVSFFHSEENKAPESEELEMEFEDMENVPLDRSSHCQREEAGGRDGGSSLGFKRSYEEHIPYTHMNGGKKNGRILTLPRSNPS
Sequence of Serine/threonine-protein kinase pim-2 (Homo sapiens) (Q9P1W9 whole entry, looked up): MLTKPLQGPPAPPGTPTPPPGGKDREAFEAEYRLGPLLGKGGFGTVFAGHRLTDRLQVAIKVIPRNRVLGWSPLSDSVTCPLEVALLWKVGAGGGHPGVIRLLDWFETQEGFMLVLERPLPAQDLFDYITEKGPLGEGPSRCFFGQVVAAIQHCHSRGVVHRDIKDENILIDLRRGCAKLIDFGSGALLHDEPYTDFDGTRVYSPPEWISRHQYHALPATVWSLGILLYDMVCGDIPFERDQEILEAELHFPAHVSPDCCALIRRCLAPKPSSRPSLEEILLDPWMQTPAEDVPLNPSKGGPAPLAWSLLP

**Q.** Which residual activity [1] does the source give for `CS(=O)(=O)N1CCCC(NC(=O)[C@H](CCC2CCCCC2)NC(=O)c2ccc(CNC(=O)c3cnc4ccccn34)cc2)C1` (stereo partly drawn) [SR-302] here?
**A.** The residual activity was 91%.

**Q.** What about the residual activity [2] of the same compound?
**A.** The residual activity was 100%.

**Q.** What about the residual activity [3] of the same compound?
**A.** Its residual activity is 90%.

**Q.** And the residual activity [4]?
**A.** Its residual activity is 100%.

**Q.** What about the residual activity [5] of the same compound?
**A.** Its residual activity is 42%.

**Q.** And the residual activity [6]?
**A.** The residual activity was 100%.

**Q.** And the residual activity [7]?
**A.** The residual activity was 100%.

**Q.** What about the residual activity [8] of the same compound?
**A.** The residual activity was 100%.

**Q.** And the residual activity [9]?
**A.** Its residual activity is 100%.

**Q.** And the residual activity [10]?
**A.** The residual activity was 100%.

**Q.** And the residual activity [11]?
**A.** The residual activity was 71%.

**Q.** And the residual activity [12]?
**A.** Its residual activity is 85%.

**Q.** And the residual activity [13]?
**A.** Its residual activity is 100%.

**Q.** What about the residual activity [14] of the same compound?
**A.** The residual activity was 95%.

**Q.** And the residual activity [15]?
**A.** The residual activity was 100%.

**Q.** What about the residual activity [16] of the same compound?
**A.** Its residual activity is 100%.

**Q.** And the residual activity [17]?
**A.** The residual activity was 100%.

**Q.** What about the residual activity [18] of the same compound?
**A.** Its residual activity is 100%.

**Q.** What about the residual activity [19] of the same compound?
**A.** Its residual activity is 82%.

**Q.** What about the residual activity [20] of the same compound?
**A.** Its residual activity is 89%.

**Q.** And the residual activity [21]?
**A.** Its residual activity is 70%.

**Q.** And the residual activity [22]?
**A.** The residual activity was 100%.

**Q.** What about the residual activity [23] of the same compound?
**A.** Its residual activity is 80%.

**Q.** What about the residual activity [24] of the same compound?
**A.** Its residual activity is 100%.

**Q.** And the residual activity [25]?
**A.** The residual activity was 100%.

**Q.** And the residual activity [26]?
**A.** Its residual activity is 100%.

**Q.** And the residual activity [27]?
**A.** The residual activity was 76%.

**Q.** And the residual activity [28]?
**A.** The residual activity was 100%.

**Q.** What about the residual activity [29] of the same compound?
**A.** Its residual activity is 100%.

**Q.** What about the residual activity [30] of the same compound?
**A.** Its residual activity is 95%.

**Q.** And the residual activity [31]?
**A.** The residual activity was 88%.

**Q.** And the residual activity [32]?
**A.** The residual activity was 90%.

**Q.** And the residual activity [33]?
**A.** Its residual activity is 97%.

**Q.** And the residual activity [34]?
**A.** Its residual activity is 94%.

**Q.** And the residual activity [35]?
**A.** The residual activity was 100%.

**Q.** What about the residual activity [36] of the same compound?
**A.** The residual activity was 93%.

**Q.** What about the residual activity [37] of the same compound?
**A.** The residual activity was 100%.

**Q.** And the residual activity [38]?
**A.** The residual activity was 94%.

**Q.** And the residual activity [39]?
**A.** Its residual activity is 100%.

**Q.** What about the residual activity [40] of the same compound?
**A.** Its residual activity is 100%.

**Q.** What about the residual activity [41] of the same compound?
**A.** Its residual activity is 100%.

**Q.** What about the residual activity [42] of the same compound?
**A.** Its residual activity is 69%.

**Q.** And the residual activity [43]?
**A.** The residual activity was 66%.

**Q.** And the residual activity [44]?
**A.** Its residual activity is 77%.

**Q.** `CS(=O)(=O)N1CCCC(NC(=O)[C@H](CCC2CCCCC2)NC(=O)c2ccc(CNc3ncnc4c3nnn4-c3ccccc3)cc2)C1` (stereo partly drawn) [SR-301] was tested. Which residual activity [1] did it give?
**A.** Its residual activity is 91%.

**Q.** What about the residual activity [2] of the same compound?
**A.** The residual activity was 100%.

**Q.** What about the residual activity [3] of the same compound?
**A.** Its residual activity is 60%.

**Q.** And the residual activity [4]?
**A.** The residual activity was 81%.

**Q.** And the residual activity [5]?
**A.** Its residual activity is 100%.

**Q.** What about the residual activity [6] of the same compound?
**A.** Its residual activity is 88%.

**Q.** And the residual activity [7]?
**A.** The residual activity was 73%.

**Q.** What about the residual activity [8] of the same compound?
**A.** Its residual activity is 100%.

**Q.** And the residual activity [9]?
**A.** Its residual activity is 76%.

**Q.** What about the residual activity [10] of the same compound?
**A.** Its residual activity is 100%.

**Q.** And the residual activity [11]?
**A.** Its residual activity is 92%.

**Q.** And the residual activity [12]?
**A.** Its residual activity is 95%.

**Q.** What about the residual activity [13] of the same compound?
**A.** Its residual activity is 90%.

**Q.** What about the residual activity [14] of the same compound?
**A.** The residual activity was 100%.

**Q.** What about the residual activity [15] of the same compound?
**A.** Its residual activity is 94%.

**Q.** And the residual activity [16]?
**A.** The residual activity was 100%.

**Q.** What about the residual activity [17] of the same compound?
**A.** The residual activity was 100%.

**Q.** And the residual activity [18]?
**A.** Its residual activity is 95%.

**Q.** What about the residual activity [19] of the same compound?
**A.** The residual activity was 100%.

**Q.** What about the residual activity [20] of the same compound?
**A.** Its residual activity is 100%.

**Q.** And the residual activity [21]?
**A.** The residual activity was 91%.

**Q.** What about the residual activity [22] of the same compound?
**A.** The residual activity was 95%.

**Q.** What about the residual activity [23] of the same compound?
**A.** The residual activity was 56%.

**Q.** What about the residual activity [24] of the same compound?
**A.** Its residual activity is 99%.

**Q.** And the residual activity [25]?
**A.** The residual activity was 96%.

**Q.** What about the residual activity [26] of the same compound?
**A.** The residual activity was 61%.

**Q.** And the residual activity [27]?
**A.** The residual activity was 100%.

**Q.** And the residual activity [28]?
**A.** The residual activity was 100%.

**Q.** What about the residual activity [29] of the same compound?
**A.** Its residual activity is 73%.

**Q.** What about the residual activity [30] of the same compound?
**A.** The residual activity was 81%.

**Q.** And the residual activity [31]?
**A.** The residual activity was 100%.

**Q.** And the residual activity [32]?
**A.** Its residual activity is 88%.

**Q.** What about the residual activity [33] of the same compound?
**A.** The residual activity was 100%.

**Q.** And the residual activity [34]?
**A.** The residual activity was 98%.

**Q.** What about the residual activity [35] of the same compound?
**A.** Its residual activity is 100%.

**Q.** What about the residual activity [36] of the same compound?
**A.** Its residual activity is 100%.

**Q.** And the residual activity [37]?
**A.** The residual activity was 100%.

**Q.** What about the residual activity [38] of the same compound?
**A.** The residual activity was 100%.

**Q.** And the residual activity [39]?
**A.** The residual activity was 100%.

**Q.** And the residual activity [40]?
**A.** The residual activity was 100%.

**Q.** What about the residual activity [41] of the same compound?
**A.** The residual activity was 100%.

**Q.** And the residual activity [42]?
**A.** The residual activity was 81%.

**Q.** And the residual activity [43]?
**A.** Its residual activity is 100%.

**Q.** And the residual activity [44]?
**A.** The residual activity was 100%.
